Source: PMC10786919, “Design-rules for stapled peptides with in vivo activity and their application to Mdm2/X antagonists” (Nature Communications, 2024)
Converted amounts (≈) assume the structure as drawn. Read-outs that look alike come from different tables or passages of the source. Positions of bridges follow the written chain, without caps; N, C: chain ends. Non-standard residues stand in square brackets, D forms with d. Residues, ends and D or L forms follow the SMILES beside them. Lys(N3) = [N-]=[N+]=NCCCC[C@H](N)C(=O)O; R8 = C=CCCCCCC[C@@](C)(N)C(=O)O; Cba = N[C@@H](CC1CCC1)C(=O)O; S5 = C=CCCC[C@](C)(N)C(=O)O; βAla = NCCC(=O)O

Columns and labels:
[1] = Experimental LogD (partition coefficient); details: for logD: not stated, Partition Coeff LogD
[2] = Lactate dehydrogenase (LDH) release assay; assay type: cell-based
How it was run: (§1)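 LDH release, fluorometric membrane-integrity read-out; HCT116 with stable p53-responsive β-lactamase reporter; 8000 cells/well; 0.5% DMSO final; geometric mean, n≥3 biological replicates.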

HCT116 cells = assay: Lactate dehydrogenase (LDH) release assay; assay type: cell-based
How it was run: as §1

in vitro = assay: in vitro
How it was run: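 Azido-peptide permeability was read as loss of NanoBRET signal (donor 450 nm, acceptor 610 nm) after adding NanoBret618-azide at 10 μM final.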

EPSA = assay type: physicochemical
[3] = Solubility assay (kinetic solubility, PBS pH 7); assay type: physicochemical; details: pH 7, PBS; for solubility kinetic: pH 7, aqueous buffer, kinetic from dmso stock, read-out: Solubility
How it was run: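 Values derive from peak-area ratios of sample versus a 100 µM standard, scaled by that standard's concentration.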

[4] = test system: Jump-In T-REx CHO-K1 BLA cells; assay: cells; assay type: cell-based; details: Supplementary Table 1; 0% serum, 4 hours
Ca Ski cell line = details: 72 h
How it was run: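 Compound dilution series (10 points, 3-fold, 10 mM top stock in DMSO) tested on overnight-plated Ca Ski cells in RPMI1640/10% FBS and on blasticidin-selected p53RE-bla HCT-116 cells in McCoy's 5A; read-out was CellTiter-Glo 2.0 luminescence after room-temperature equilibration.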

[5] = Nanoclick permeability assay EC50
[6] = 0% FBS 4Hr, read-out: LDH: Cytotoxicity assay: EC50
[7] = 10% FBS 16Hr, read-out: LDH: Cytotoxicity assay: EC50

SMILES: CC(=O)N[C@@H](CCC(=O)O)C(=O)N[C@@H](CCCCN=[N+]=[N-])C(=O)NCCCCCC(=O)N[C@H](C(=O)N[C@@H](CO)C(=O)N[C@@H](Cc1ccccc1)C(=O)N[C@]1(C)CCCCCCC=CCCC[C@@](C)(C(N)=O)NC(=O)[C@H](CC(C)C)NC(=O)[C@H](CC(C)C)NC(=O)[C@H](C)NC(=O)[C@H](Cc2c[nH]c3ccccc23)NC(=O)[C@H](Cc2ccc(O)cc2)NC(=O)[C@H](CCC(=O)O)NC1=O)[C@@H](C)O [MP-027]
- Partition Coeff LogD [1]: Poorly Behaved
- EC50 ([2]; LDH: Cytotoxicity assay: EC50): > 50 µM
- LDH: Cytotoxicity assay: % Effect (HCT116 cells): 2.385%
- cell entry EC50 (in vitro; [5]): 0.415 µM
- EPSA (EPSA): Poorly Behaved
- Solubility [3]: Poorly Behaved

SMILES: CC(=O)N[C@@H](CCCCN=[N+]=[N-])C(=O)NCCC(=O)N[C@@H](CC(C)C)C(=O)N[C@H](C(=O)N[C@@H](Cc1ccccc1)C(=O)N[C@]1(C)CCCCCCC=CCCC[C@@](C)(C(=O)N[C@@H](CCC(=O)O)C(=O)N[C@@H](CCC(=O)O)C(=O)N[C@@H](C)C(N)=O)NC(=O)[C@H](CC2CCC2)NC(=O)[C@H](CCC(N)=O)NC(=O)[C@H](CCC(=O)O)NC(=O)[C@H](Cc2c[nH]c3ccccc23)NC(=O)[C@H](Cc2ccc(O)cc2)NC(=O)[C@H](CCC(=O)O)NC1=O)[C@@H](C)O [MP-3684] (Ac-[Lys(N3)][βAla]LTF[R8]EYWEQ[Cba][S5]EEA-NH2; staple 6-13)
- logD [1]: 1.89
- EC50 [2, 6]: > 50.7 µM
- EC50 [2, 7]: > 50.7 µM
- LDH: Cytotoxicity assay: % Effect (HCT116 cells; 0% FBS 4Hr): 7.239%
- LDH: Cytotoxicity assay: % Effect (HCT116 cells; 10% FBS 16Hr): 0.1213%
- off-target effects (LDH release and/or counterscreen activity) [4]: none
- cell entry EC50 (in vitro): 3.88 µM
- EPSA (EPSA): Poorly Behaved

SMILES: CC(=O)N[C@@H](CCCCN=[N+]=[N-])C(=O)NCCC(=O)N[C@@H](CC(C)C)C(=O)N[C@H](C(=O)N[C@@H](Cc1ccccc1)C(=O)N[C@]1(C)CCCCCCC=CCCC[C@@](C)(C(=O)N[C@@H](CO)C(=O)N[C@@H](C)C(=O)N[C@@H](C)C(N)=O)NC(=O)[C@H](CC2CCC2)NC(=O)[C@H](C)NC(=O)[C@H](CCC(N)=O)NC(=O)[C@H](Cc2c[nH]c3ccccc23)NC(=O)[C@H](Cc2ccc(O)cc2)NC(=O)[C@H](CCC(=O)O)NC1=O)[C@@H](C)O [MP-4203] (Ac-[Lys(N3)][βAla]LTF[R8]EYWQA[Cba][S5]SAA-NH2; staple 6-13)
- logD [1]: 2.71
- EC50 ([2]; LDH: Cytotoxicity assay: EC50): > 50.7 µM
- LDH: Cytotoxicity assay: % Effect (HCT116 cells): 15.26%
- cell entry EC50 (in vitro; [5]): 1.2 µM
- EPSA (EPSA; EPSA): 190 A^2
- solubility kinetic [3]: 179 µM (≈ 353 µg/mL)

SMILES: CC(=O)N[C@@H](CCCCN=[N+]=[N-])C(=O)NCCC(=O)N[C@@H](CC(C)C)C(=O)N[C@H](C(=O)N[C@@H](Cc1ccccc1)C(=O)N[C@]1(C)CCCCCCC=CCCC[C@@](C)(C(=O)N[C@@H](CO)C(=O)N[C@@H](C)C(=O)N[C@@H](C)C(N)=O)NC(=O)[C@H](CCC(N)=O)NC(=O)[C@H](Cc2ccc(O)cc2)NC(=O)[C@H](Cc2c[nH]c3ccccc23)NC(=O)[C@H](CC2CCC2)NC(=O)[C@H](CCC(=O)O)NC(=O)[C@H](C)NC1=O)[C@@H](C)O [MP-205] (Ac-[Lys(N3)][βAla]LTF[R8]AE[Cba]WYQ[S5]SAA-NH2; staple 6-13)
- logD [1]: 3.02
- EC50 ([2]; LDH: Cytotoxicity assay: EC50): > 50.7 µM
- LDH: Cytotoxicity assay: % Effect (HCT116 cells): -2.394%
- cell entry EC50 (in vitro; [5]): 0.277 µM
- EPSA (EPSA; EPSA): 198 A^2
- solubility kinetic [3]: 16 µM (≈ 31.5 µg/mL)

SMILES: CC(=O)N[C@@H](CCCCN=[N+]=[N-])C(=O)N[C@H](C(=O)N[C@@H](Cc1ccccc1)C(=O)N[C@]1(C)CCCCCCC=CCCC[C@@](C)(C(=O)N[C@@H](C)C(=O)N[C@@H](C)C(=O)N[C@@H](C)C(=O)N[C@@H](C)C(=O)N[C@@H](C)C(=O)N[C@H](C)C(N)=O)NC(=O)[C@H](CC2CCC2)NC(=O)[C@H](CCC(N)=O)NC(=O)[C@H](C)NC(=O)[C@H](Cc2c[nH]c3ccccc23)NC(=O)[C@H](Cc2ccc(O)cc2)NC(=O)[C@H](CCC(=O)O)NC1=O)[C@@H](C)O [MP-062] (Ac-[Lys(N3)]TF[R8]EYWAQ[Cba][S5]AAAAA[dA]-NH2; staple 4-11)
- Partition Coeff LogD [1]: Poorly Behaved
- EC50 [2, 6]: > 50.7 µM
- EC50 [2, 7]: > 50.7 µM
- LDH: Cytotoxicity assay: % Effect (HCT116 cells; 0% FBS 4Hr): 5.433%
- LDH: Cytotoxicity assay: % Effect (HCT116 cells; 10% FBS 16Hr): 10.66%
- cell entry EC50 (in vitro): 2.08 µM
- EPSA (EPSA; EPSA): 201 A^2
- Solubility [3]: Poorly Behaved

SMILES: CC(=O)N[C@@H](CCCCN=[N+]=[N-])C(=O)NCCC(=O)N[C@@H](CC(C)C)C(=O)N[C@H](C(=O)N[C@@H](Cc1ccccc1)C(=O)N[C@]1(C)CCCCCCC=CCCC[C@@](C)(C(=O)N[C@@H](C)C(=O)N[C@@H](C)C(=O)N[C@@H](Cc2ccccc2)C(=O)N[C@@H](C)C(=O)N[C@@H](C)C(=O)N[C@H](C)C(N)=O)NC(=O)[C@H](CC2CCC2)NC(=O)[C@H](CCC(N)=O)NC(=O)[C@H](C)NC(=O)[C@H](Cc2c[nH]c3ccccc23)NC(=O)[C@H](Cc2ccc(O)cc2)NC(=O)[C@H](CCC(=O)O)NC1=O)[C@@H](C)O [MP-228] (Ac-[Lys(N3)][βAla]LTF[R8]EYWAQ[Cba][S5]AAFAA[dA]-NH2; staple 6-13)
- EC50 (Ca Ski cell line): 30.7 µM
- EC50 ([2]; LDH: Cytotoxicity assay: EC50): > 50.7 µM
- cell entry EC50 (in vitro; [5]): 2.51 µM
- EPSA (EPSA; EPSA): 199 A^2
- solubility kinetic [3]: 2 µM (≈ 4.49 µg/mL)
